Assay [1] relates to Streptococcus pneumoniae 1/1. Description: MIC against Streptococcus pneumoniae 1/1. In kind it is cell-based. Particulars: Table 2; Streptococcus pneumoniae 1/1, trimethoprim- and penicillin-resistant, serotype 6; clinical isolate; read-out: MIC Sp1/1.
In assay [2] the test system is Staphylococcus aureus 101. Description: MIC against Staphylococcus aureus 101. The format is cell-based. Particulars: Table 2; Staphylococcus aureus 101, MRSA- and trimethoprim-resistant; clinical isolate; read-out: MIC Sa101.
The target of assay [3] is T1, purified DHFR of strain Sp1/1 of Streptococcus pneumoniae (Streptococcus pneumoniae serotype 4, UniProt Q54801).
T1 sequence (Q54801 1-168 I100L): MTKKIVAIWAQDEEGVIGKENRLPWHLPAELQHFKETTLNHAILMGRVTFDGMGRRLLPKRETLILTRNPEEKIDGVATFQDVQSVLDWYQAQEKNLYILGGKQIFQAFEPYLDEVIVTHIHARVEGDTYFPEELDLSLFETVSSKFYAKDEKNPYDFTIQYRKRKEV
In kind it is biochemical. Particulars: Table 2; IC50 against purified DHFR of strain Sp1/1.

In assay [4] the target is purified DHFR of strain 157/4696 of Staphylococcus aureus (Staphylococcus aureus, UniProt P13955). Description: biochemical.
Sequence of purified DHFR of strain 157/4696 of Staphylococcus aureus (P13955 whole entry): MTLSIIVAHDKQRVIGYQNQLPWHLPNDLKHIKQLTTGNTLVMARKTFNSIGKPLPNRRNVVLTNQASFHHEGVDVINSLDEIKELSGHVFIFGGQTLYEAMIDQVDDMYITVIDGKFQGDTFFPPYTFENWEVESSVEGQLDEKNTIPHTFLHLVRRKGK

9 molecules from patent US6821980B1, “Substituted 5-benzyl-2,4-diaminopyrimidines” (Basilea Pharmaceutica AG, priority 1999, dated 2004) can be followed below.

SMILES strings stand for the structures. In brackets after ≈: the same amount, converted by molar mass.

Broadly, the IC50 is the point on the concentration scale where inhibition reaches its midpoint. Read a low IC50 as greater potency.

As to `CCOc1cc(Cc2cnc(N)nc2N)cc(OS(=O)(=O)N(C)CC)c1-c1ccc(N)c(C)c1` [Example 27-b, N-Ethyl-N-methyl-sulphamic acid 4′-amino-4-(2,4-diamino-vyrimidin-5-ylmethyl)-6-ethoxy-3′-methyl-biphenyl-2-yl ester], the MIC in assay [1] amounted to 1 µg/mL (≈ 2.06 µM); in assay [2], 2 µg/mL (≈ 4.11 µM). For the same molecule, the half-maximal inhibitory concentration (IC50) in assay [3] stood at 14 nM; in assay [4], 190 nM.

Turning to `CCOc1cc(Cc2cnc(N)nc2N)cc(OS(=O)(=O)N(C)C2CC2)c1-c1ccc(N)c(C)c1` [Example 27-c, N-Cyclopropyl-N-methyl-sulphamic acid 4′-amino-4-(2,4-diamino-pyrimidin-5-ylmethyl)-6-ethoxy-3′-methyl-biphenyl-2-yl ester], the MIC in assay [1] and in assay [2] was 1 µg/mL (≈ 2.01 µM) in each case. In addition, the figures for the IC50 in assay [3] and in assay [4] were 2.6 nM and 180 nM, respectively.

As to `CCOc1cc(Cc2cnc(N)nc2N)cc(OS(=O)(=O)N(C)C)c1-c1ccc(N)c(F)c1` [Example 28-a, Dimethylsullhamic acid 4′-amino-4-(2,4-diamino-pyrimidin-5-ylmethyl)-6-ethoxy-3′-fluoro-biphenyl-2-yl ester], the MIC in assay [1] is 1 µg/mL (≈ 2.1 µM); in assay [2], 2 µg/mL (≈ 4.2 µM). Also, the IC50 in assay [3] came out at 5.8 nM; in assay [4] it was 320 nM.

Consider `CCOc1cc(Cc2cnc(N)nc2N)cc(OS(=O)(=O)N(C)CC)c1-c1ccc(N)c(F)c1` [Example 28-b, N-Ethyl-N-methyl-sulphamic acid 4′-amino-4-(2,4-diamino-pyrimidin-5-ylmethyl)-6-ethoxy-3′-fluoro-biphenyl-2-yl ester], for which the MIC came out at 1 µg/mL (≈ 2.04 µM) in assay [1] and 2 µg/mL (≈ 4.08 µM) in assay [2]. The results for the IC50 in assay [3] and in assay [4] were 6.8 nM and 320 nM, respectively.

Turning to `CCOc1cc(Cc2cnc(N)nc2N)cc(OS(=O)(=O)N(C)C2CC2)c1-c1ccc(N)c(F)c1` [Example 28-c, N-Cyclopropyl-N-methyl-sulphamic acid 4′-amino-4-(2,4-diamino-pvrimidin-5-ylmethyl)-6-ethoxy-3′-fluoro-biphenyl-2-yl ester], the MIC in assay [1] turned out to be 1 µg/mL (≈ 1.99 µM); in assay [2], 2 µg/mL (≈ 3.98 µM). The values for the IC50 in assay [3] and in assay [4] were 18 nM and 240 nM, respectively.

On to `CCOc1cc(Cc2cnc(N)nc2N)cc(OS(=O)(=O)N(C)C2CC2)c1-c1cc(N)cc(F)c1` [Example 29-a, N-Cyclopropyl-N-methyl-sulphamic acid 3′-amino-4-(2,4-diamino-pyrimidin-5-ylmethyl)-6-ethoxy-5′-fluoro-biphenyl-2-yl ester], for which the MIC is 2 µg/mL (≈ 3.98 µM) in assay [1] and 1 µg/mL (≈ 1.99 µM) in assay [2]. In addition, the IC50 in assay [3] was 6.3 nM; in assay [4], 220 nM.

In the case of `CCOc1cc(Cc2cnc(N)nc2N)cc(OS(=O)(=O)N(C)C)c1-c1cc(N)cc(F)c1` [Example 29-b, Dimethylsulphamic acid 3′-amino-4-(2,4-diamino-pyrimidin-5-ylmethyl)-6-ethoxy-5′-fluoro-biphenyl-2-yl ester], the MIC in assay [1] and in assay [2] was 2 µg/mL (≈ 4.2 µM) throughout. Moreover, the figures for the IC50 in assay [3] and in assay [4] were 14 nM and 95 nM, respectively.

`CCOc1cc(Cc2cnc(N)nc2N)cc(OS(=O)(=O)N(C)CC)c1-c1cc(N)cc(F)c1` [Example 29-c, N-Ethyl-N-methyl-sulphamic acid 3′-amino-4-(2,4-diamino-pyrimidin-5-ylmethyl)-6-ethoxy-5′-fluoro-biphenyl-2-yl ester]: the MIC in assay [1] and in assay [2] was 2 µg/mL (≈ 4.08 µM) each time. Moreover, the IC50 in assay [3] was 5.2 nM; in assay [4], 170 nM.

For the molecule `CCOc1cc(Cc2cnc(N)nc2N)cc(OS(=O)(=O)N(C)C)c1-c1ccc(CN2CCOCC2)c(N)c1` [Example 30-a, Dimethylsulphamic acid 3′-amino-4-(2,4-diamino-pyrimidin-5-ylmethyl)-6-ethoxy-4′-morpholin-4-ylmethyl-biphenyl-2-yl ester], the MIC in assay [1] and in assay [2] was 2 µg/mL (≈ 3.59 µM) each time. The IC50 came out at 4.5 nM in assay [3] and 88 nM in assay [4].
